logP data for 46 compounds are collected here from US20100022559A1, “BISOXIMES AS FUNGICIDES” (BAYER CROPSCIENCE AG, priority 2006, published 2010).

Each structure is given as a SMILES string.

The first data set is described as follows: logP determination by HPLC on a reversed-phase column (C 18), EEC Directive 79/831 Annex V.A8. It counts as physicochemical. Particulars: method marked [a] in Table 1. As for the experimental part: The stated logP values were determined in accordance with EEC Directive 79/831 Annex V.A8 by HPLC (high performance liquid chromatography) on a reversed-phase column (C 18). Temperature: 43° C.
Regarding `CCC1=NOC(CON=C(c2cccc(C)n2)C(C)C)(CON=C(c2cccc(C)n2)C(C)C)C1` (stereo not shown) [compound 595], the logP was 4.79^[a].

The same data set, now with this note: method marked [b] in Table 1.
Regarding `CC1=NOC(CON=C(C)c2cccc(C)n2)(CON=C(C)c2cccc(C)n2)C1` (stereo not shown) [compound 596], the logP is 2.20^[b].

In the case of `CC(=NOCC1(CON=C(C)c2cccc(C)n2)CC(C(C)C)=NO1)c1cccc(C)n1` (stereo not shown) [compound 597], the logP is 3.28^[b].

As to `CCCC1=NOC(CON=C(C)c2cccc(C)n2)(CON=C(C)c2cccc(C)n2)C1` (stereo not shown) [compound 598], the logP was 3.33^[b].

With `CC(=NOCC1(CON=C(C)c2cccc(C)n2)CC(CC(C)C)=NO1)c1cccc(C)n1` (stereo not shown) [compound 599], the logP was 3.89^[b].

For `CC(=NOCC1(CON=C(C)c2cccc(C)n2)CC(c2ccc(Cl)cc2)=NO1)c1cccc(C)n1` (stereo not shown) [compound 601], the logP was 4.67^[b].

Take `CC(=NOCC1(CON=C(C)c2cccc(C)n2)CC(c2ccccc2Cl)=NO1)c1cccc(C)n1` (stereo not shown) [compound 602]: the logP is 4.46^[b].

For `C/C(=N\OCC1(CO/N=C(\C)c2cccc(C)n2)CC(c2cccc(Cl)c2)=NO1)c1cccc(C)n1` [compound 603], the logP is 4.67^[b].

As to `CC(C)=CC1=NOC(CO/N=C(\C)c2cccc(C)n2)(CO/N=C(\C)c2cccc(C)n2)C1` [compound 604], the logP was 3.70^[b].

As to `CCC(=NOCC1(CON=C(CC)c2cccc(C)n2)CC(C)=NO1)c1cccc(C)n1` (stereo not shown) [compound 605], the logP is 3.42^[b].

For `CCC(=NOCC1(CON=C(CC)c2cccc(C)n2)CC(C(C)C)=NO1)c1cccc(C)n1` (stereo not shown) [compound 606], the logP is 4.67^[b].

With `CCCC1=NOC(CON=C(CC)c2cccc(C)n2)(CON=C(CC)c2cccc(C)n2)C1` (stereo not shown) [compound 608], the logP is 4.72^[b].

For the compound `CCC(=NOCC1(CON=C(CC)c2cccc(C)n2)CC(CC(C)C)=NO1)c1cccc(C)n1` (stereo not shown) [compound 609], the logP is 5.21^[b].

With `CCC(=NOCC1(CON=C(CC)c2cccc(C)n2)CC(C(C)(C)C)=NO1)c1cccc(C)n1` (stereo not shown) [compound 610], the logP was 5.21^[b].

Turning to `CCC(=NOCC1(CON=C(CC)c2cccc(C)n2)CC(c2ccccc2)=NO1)c1cccc(C)n1` (stereo not shown) [compound 611], the logP is 5.08^[b].

`CCC(=NOCC1(CON=C(CC)c2cccc(C)n2)CC(c2ccc(Cl)cc2)=NO1)c1cccc(C)n1` (stereo not shown) [compound 612]: the logP is 5.84^[b].

Turning to `CCC(=NOCC1(CON=C(CC)c2cccc(C)n2)CC(c2cccc(Cl)c2)=NO1)c1cccc(C)n1` (stereo not shown) [compound 613], the logP is 5.84^[b].

For the compound `CCCC(=NOCC1(CON=C(CCC)c2cccc(C)n2)CC(C)=NO1)c1cccc(C)n1` (stereo not shown) [compound 615], the logP is 4.56^[b].

For the compound `CCCC(=NOCC1(CON=C(CCC)c2cccc(C)n2)CC(C(C)C)=NO1)c1cccc(C)n1` (stereo not shown) [compound 616], the logP was 5.71^[b].

In the case of `CCCC(=NOCC1(CON=C(CCC)c2cccc(C)n2)CC(CC)=NO1)c1cccc(C)n1` (stereo not shown) [compound 617], the logP was 5.08^[b].

With `CCCC(=NOCC1(CON=C(CCC)c2cccc(C)n2)CC(CC(C)C)=NO1)c1cccc(C)n1` (stereo not shown) [compound 619], the logP was 6.22^[b].

As to `CCCC(=NOCC1(CON=C(CCC)c2cccc(C)n2)CC(C(C)(C)C)=NO1)c1cccc(C)n1` (stereo not shown) [compound 620], the logP was 6.22^[b].

As for `CCCC(=NOCC1(CON=C(CCC)c2cccc(C)n2)CC(c2ccccc2)=NO1)c1cccc(C)n1` (stereo not shown) [compound 621], the logP was 5.9^[b].

As to `CCCC(=NOCC1(CON=C(CCC)c2cccc(C)n2)CC(c2ccc(Cl)cc2)=NO1)c1cccc(C)n1` (stereo not shown) [compound 622], the logP was 6.58^[b].

As to `CCCC(=NOCC1(CON=C(CCC)c2cccc(C)n2)CC(c2ccccc2Cl)=NO1)c1cccc(C)n1` (stereo not shown) [compound 623], the logP is 6.51^[b].

As for `CCCC(=NOCC1(CON=C(CCC)c2cccc(C)n2)CC(c2cccc(Cl)c2)=NO1)c1cccc(C)n1` (stereo not shown) [compound 624], the logP was 6.58^[b].

On to `CCCC(=NOCC1(CON=C(CCC)c2cccc(C)n2)CC(C=C(C)C)=NO1)c1cccc(C)n1` (stereo not shown) [compound 625], for which the logP was 5.97^[b].

On to `CC1=NOC(CON=C(C)c2ccc(C)c(C)n2)(CON=C(C)c2ccc(C)c(C)n2)C1` (stereo not shown) [compound 626], for which the logP was 2.07^[b].

Consider `CC(=NOCC1(CON=C(C)c2ccc(C)c(C)n2)CC(C(C)C)=NO1)c1ccc(C)c(C)n1` (stereo not shown) [compound 627], for which the logP is 3.06^[b].

For the compound `CCC1=NOC(CON=C(C)c2ccc(C)c(C)n2)(CON=C(C)c2ccc(C)c(C)n2)C1` (stereo not shown) [compound 628], the logP was 2.51^[b].

`CCCC1=NOC(CON=C(C)c2ccc(C)c(C)n2)(CON=C(C)c2ccc(C)c(C)n2)C1` (stereo not shown) [compound 629]: the logP was 3.11^[b].

As to `CC(=NOCC1(CON=C(C)c2ccc(C)c(C)n2)CC(CC(C)C)=NO1)c1ccc(C)c(C)n1` (stereo not shown) [compound 630], the logP is 3.70^[b].

Take `CC(=NOCC1(CON=C(C)c2ccc(C)c(C)n2)CC(C(C)(C)C)=NO1)c1ccc(C)c(C)n1` (stereo not shown) [compound 631]: the logP is 3.65^[b].

Turning to `CC(=NOCC1(CON=C(C)c2ccc(C)c(C)n2)CC(c2ccccc2)=NO1)c1ccc(C)c(C)n1` (stereo not shown) [compound 632], the logP was 3.61^[b].

Regarding `CC(=NOCC1(CON=C(C)c2ccc(C)c(C)n2)CC(c2ccc(Cl)cc2)=NO1)c1ccc(C)c(C)n1` (stereo not shown) [compound 633], the logP was 4.51^[b].

For the compound `C/C(=N\OCC1(CO/N=C(\C)c2ccc(C)c(C)n2)CC(c2ccccc2Cl)=NO1)c1ccc(C)c(C)n1` [compound 634], the logP was 4.3^[b].

As for `C/C(=N\OCC1(CO/N=C(\C)c2ccc(C)c(C)n2)CC(c2cccc(Cl)c2)=NO1)c1ccc(C)c(C)n1` [compound 635], the logP is 4.51^[b].

For `CC(C)=CC1=NOC(CO/N=C(\C)c2ccc(C)c(C)n2)(CO/N=C(\C)c2ccc(C)c(C)n2)C1` [compound 636], the logP is 3.46^[b].

With `CC(=NOCC1(CON=C(C)c2cc(C)cc(C)n2)CC(C(C)C)=NO1)c1cc(C)cc(C)n1` (stereo not shown) [compound 638], the logP is 2.18^[b].

In the case of `CCCC1=NOC(CON=C(C)c2cc(C)cc(C)n2)(CON=C(C)c2cc(C)cc(C)n2)C1` (stereo not shown) [compound 640], the logP was 2.20^[b].

As for `CC(=NOCC1(CON=C(C)c2cc(C)cc(C)n2)CC(CC(C)C)=NO1)c1cc(C)cc(C)n1` (stereo not shown) [compound 641], the logP is 2.66^[b].

For the compound `CC(=NOCC1(CON=C(C)c2cc(C)cc(C)n2)CC(C(C)(C)C)=NO1)c1cc(C)cc(C)n1` (stereo not shown) [compound 642], the logP is 2.62^[b].

Take `CC(=NOCC1(CON=C(C)c2cc(C)cc(C)n2)CC(c2ccccc2)=NO1)c1cc(C)cc(C)n1` (stereo not shown) [compound 643]: the logP was 2.55^[b].

Regarding `CC(=NOCC1(CON=C(C)c2cc(C)cc(C)n2)CC(c2ccc(Cl)cc2)=NO1)c1cc(C)cc(C)n1` (stereo not shown) [compound 644], the logP is 3.28^[b].

On to `CC(=NOCC1(CON=C(C)c2cc(C)cc(C)n2)CC(c2ccccc2Cl)=NO1)c1cc(C)cc(C)n1` (stereo not shown) [compound 645], for which the logP is 3.19^[b].

With `CC(=NOCC1(CON=C(C)c2cc(C)cc(C)n2)CC(c2cccc(Cl)c2)=NO1)c1cc(C)cc(C)n1` (stereo not shown) [compound 646], the logP was 3.28^[b].
